Columns and labels:
Type in all cases: cell-based
[1] = test system: HCT-116 colorectal cancer cell line; assay: CCK-8 proliferation inhibition; details: Homo sapiens, HCT-116, 72 h, concentration of 30 μM; 72 hours; CCK-8; read-out: HCT116 inhibition rate/%
Summary of the method: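 2000 cells/well, McCoy's 5A + 10% newborn bovine serum; overnight attach, 37° C./5% CO2. Cpd from DMSO stock diluted in medium, 72 h. Readout: CCK-8 (1:10). Ctrl 1‰ DMSO.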

[2] = test system: Moraxella catarrhalis (BCA); assay: MIC, two-fold agar dilution (CLSI), clinical isolates
Summary of the method: (§1)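 Susceptibility was tested using CLSI two-fold agar dilution against the strains examined.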

[3] = test system: methicillin-sensitive Staphylococcus epidermidis (MSSE); assay: as above
Summary of the method: as §1

[4] = test system: Enterococcus faecium (EFM); assay: as above
Summary of the method: as §1

[5] = test system: methicillin-resistant Staphylococcus epidermidis (MRSE); assay: as above
Summary of the method: as §1

[6] = test system: methicillin-resistant Staphylococcus aureus (MRSA); assay: as above
Summary of the method: as §1

[7] = test system: Enterococcus faecalis (EFA); assay: as above
Summary of the method: as §1

[8] = test system: Streptococcus pneoumoniae (SPN); assay: as above
Summary of the method: as §1

[9] = test system: Escherichia coli (including ESBLs, non-ESBLs); assay: as above
Summary of the method: as §1

[10] = test system: methicillin-sensitive Staphylococcus aureus (MSSA); assay: as above
Summary of the method: as §1

CCCC[C@H](CC(=O)NO)C(=O)N1CC2(CC2)C[C@H]1C(=O)Nc1cnn(CCN(C)C)c1 [Example 52, (S)—N-(1-(2-(dimethylamino)ethyl)-1H-pyrazol-4-yl)-5-((R)-2-(2-(hydroxyamino)-2-oxoethyl)hexanoyl)-5-spiro[2.4]heptane-6-carboxamide]
inhibition at 30 µM [1]: -1%
Anti-bacterial activity (MIC), strain BCA 14-1 ([2]; clinical isolate BCA 14-1): > 32 µg/mL
Anti-bacterial activity (MIC), strain BCA 14-4 ([2]; clinical isolate BCA 14-4): > 32 µg/mL
Anti-bacterial activity (MIC), strain BCA 14-5 ([2]; clinical isolate BCA 14-5): > 32 µg/mL
Anti-bacterial activity (MIC), strain BCA 14-6 ([2]; clinical isolate BCA 14-6): > 32 µg/mL
Anti-bacterial activity (MIC), strain BCA 14-7 ([2]; clinical isolate BCA 14-7): > 32 µg/mL
Anti-bacterial activity (MIC), strain BCA 14-8 ([2]; clinical isolate BCA 14-8): > 32 µg/mL
Anti-bacterial activity (MIC), strain BCA 14-10 ([2]; clinical isolate BCA 14-10): > 32 µg/mL
Anti-bacterial activity (MIC), strain MSSE 15-3 ([3]; clinical isolate MSSE 15-3): > 32 µg/mL
Anti-bacterial activity (MIC), strain MSSE 15-4 ([3]; clinical isolate MSSE 15-4): > 32 µg/mL
Anti-bacterial activity (MIC), strain MSSE 15-5 ([3]; clinical isolate MSSE 15-5): > 32 µg/mL
Anti-bacterial activity (MIC), strain MSSE 15-6 ([3]; clinical isolate MSSE 15-6): > 32 µg/mL
Anti-bacterial activity (MIC), strain EFM 15-1 ([4]; clinical isolate EFM 15-1): > 32 µg/mL
Anti-bacterial activity (MIC), strain EFM 15-2 ([4]; clinical isolate EFM 15-2): > 32 µg/mL
Anti-bacterial activity (MIC), strain EFM 15-3 ([4]; clinical isolate EFM 15-3): > 32 µg/mL
Anti-bacterial activity (MIC), strain EFM 15-4 ([4]; clinical isolate EFM 15-4): > 32 µg/mL
Anti-bacterial activity (MIC), strain EFM 15-5 ([4]; clinical isolate EFM 15-5): 16 µg/mL
Anti-bacterial activity (MIC), strain EFM 15-6 ([4]; clinical isolate EFM 15-6): 16 µg/mL
Anti-bacterial activity (MIC), strain MRSE 15-1 ([5]; clinical isolate MRSE 15-1): > 32 µg/mL
Anti-bacterial activity (MIC), strain MRSE 15-2 ([5]; clinical isolate MRSE 15-2): > 32 µg/mL
Anti-bacterial activity (MIC), strain MRSE 15-3 ([5]; clinical isolate MRSE 15-3): > 32 µg/mL
Anti-bacterial activity (MIC), strain MRSE 15-7 ([5]; clinical isolate MRSE 15-7): > 32 µg/mL
Anti-bacterial activity (MIC), strain MRSA 15-1 ([6]; clinical isolate MRSA 15-1): > 32 µg/mL
Anti-bacterial activity (MIC), strain MRSA 15-2 ([6]; clinical isolate MRSA 15-2): > 32 µg/mL
Anti-bacterial activity (MIC), strain MRSA 15-3 ([6]; clinical isolate MRSA 15-3): > 32 µg/mL
Anti-bacterial activity (MIC), strain MRSA 15-4 ([6]; clinical isolate MRSA 15-4): > 32 µg/mL
Anti-bacterial activity (MIC), strain EFA 15-1 ([7]; clinical isolate EFA 15-1): > 32 µg/mL
Anti-bacterial activity (MIC), strain EFA 15-2 ([7]; clinical isolate EFA 15-2): > 32 µg/mL
Anti-bacterial activity (MIC), strain EFA 15-3 ([7]; clinical isolate EFA 15-3): > 32 µg/mL
Anti-bacterial activity (MIC), strain EFA 15-4 ([7]; clinical isolate EFA 15-4): > 32 µg/mL
Anti-bacterial activity (MIC), strain EFA 15-5 ([7]; clinical isolate EFA 15-5): > 32 µg/mL
Anti-bacterial activity (MIC), strain EFA 15-6 ([7]; clinical isolate EFA 15-6): > 32 µg/mL
Anti-bacterial activity (MIC), strain EFA 15-9 ([7]; clinical isolate EFA 15-9): > 32 µg/mL
Anti-bacterial activity (MIC), strain SPN 16-2 ([8]; clinical isolate SPN 16-2): 8 µg/mL
Anti-bacterial activity (MIC), strain SPN 16-4 ([8]; clinical isolate SPN 16-4): 8 µg/mL
Anti-bacterial activity (MIC), strain ECO+ 15-1 ([9]; clinical isolate ECO+ 15-1): > 32 µg/mL
Anti-bacterial activity (MIC), strain ECO+ 15-2 ([9]; clinical isolate ECO+ 15-2): > 32 µg/mL
Anti-bacterial activity (MIC), strain ECO+ 15-3 ([9]; clinical isolate ECO+ 15-3): > 32 µg/mL
Anti-bacterial activity (MIC), strain ECO+ 15-4 ([9]; clinical isolate ECO+ 15-4): > 32 µg/mL
Anti-bacterial activity (MIC), strain ECO− 15-1 ([9]; clinical isolate ECO− 15-1): > 32 µg/mL
Anti-bacterial activity (MIC), strain ECO− 15-2 ([9]; clinical isolate ECO− 15-2): > 32 µg/mL
Anti-bacterial activity (MIC), strain ECO− 15-3 ([9]; clinical isolate ECO− 15-3): > 32 µg/mL
Anti-bacterial activity (MIC), strain ECO− 15-4 ([9]; clinical isolate ECO− 15-4): > 32 µg/mL
Anti-bacterial activity (MIC), strain MSSA 15-3 ([10]; clinical isolate MSSA 15-3): > 32 µg/mL
Anti-bacterial activity (MIC), strain MSSA 15-4 ([10]; clinical isolate MSSA 15-4): > 32 µg/mL
Anti-bacterial activity (MIC), strain MSSA 15-5 ([10]; clinical isolate MSSA 15-5): > 32 µg/mL
Anti-bacterial activity (MIC), strain MSSA 15-6 ([10]; clinical isolate MSSA 15-6): > 32 µg/mL
